From patent US10000489B2, “Compounds αvβ6 integrin antagonists” (GlaxoSmithKline Intellectual Property Development Limited, priority 2014, dated 2018)
Counter-ions that a name gives are not always drawn. Like-named read-outs stand apart in the source and are kept apart here.

Key:
Format in all cases: cell-based
αvβ8 = target: T1, αvβ8 (Homo sapiens, UniProt P06756+P26012); assay: Cell adhesion assay, K562-αvβ8 (LAP-b1); details: read-out: αvβ8 pIC50 (converted)
T1 construct: expressed in transfected cells; host or cells: K562
Method: (§1) The following cell lines were used, with ligands in brackets: K562-αvβ3 (LAP-b1), K562-αvβ5 (Vitronectin), K562-αvβ6 (LAP-b1), K562-αvβ8 (LAP-b1), A549-αvβ1 (LAP-b1). The divalent cation used to facilitate adhesion was 2 mM MgCl2. Adhesion was quantified by cell labelling with the fluorescent dye BCECF-AM (Life Technologies), where cell suspensions at 3×10^6 cells/mL were incubated with 0.33 uL/mL of 30 mM BCECF-AM at 37° C. for 10 minutes, then 50 μL/well were dispensed into the 96-well assay plate. At the assay conclusion cells that adhered were lysed using 50 μL/well of 0.5% Triton X-100 in H2O to release fluorescence. Fluorescence intensity was detected using an Envision® plate reader (Perkin Elmer). For active antagonists in the assay, data were fitted to a 4 parameter logistic equation for IC50 determinations.
Figures quoted are Mean pIC50 values.

αvβ1 = target: T2, αvβ1 (Homo sapiens, UniProt P05556+P06756); assay: Cell adhesion assay, A549-αvβ1 (LAP-b1)
T2 construct: host or cells: A549
Method: as §1
Figures quoted are Mean pIC50 values.

αvβ5 = target: T3, αvβ5 (Homo sapiens, UniProt P06756+P18084); assay: Cell adhesion assay, K562-αvβ5 (Vitronectin); details: read-out: αvβ5 pIC50 (converted)
T3 construct: expressed in transfected cells; host or cells: K562
Method: as §1
Figures quoted are Mean pIC50 values.

αvβ3 = target: T4, αvβ3 (Homo sapiens, UniProt P05106+P06756); assay: Cell adhesion assay, K562-αvβ3 (LAP-b1); details: read-out: αvβ3 pIC50 (converted)
T4 construct: expressed in transfected cells; host or cells: K562
Method: as §1
Figures quoted are Mean pIC50 values.

αvβ6 = target: T5, αvβ6 (Homo sapiens, UniProt P06756+P18564); assay: Cell adhesion assay, K562-αvβ6 (LAP-b1); details: read-out: αvβ6 pIC50 (converted)
T5 construct: expressed in transfected cells; host or cells: K562
Method: as §1
Figures quoted are Mean pIC50 values.

[1] = cell adhesion, A549-αvβ1 cells, ligand LAP-b1, 2 mM MgCl2, mean pIC50

T2 sequence (P06756 31-889 limits assumed): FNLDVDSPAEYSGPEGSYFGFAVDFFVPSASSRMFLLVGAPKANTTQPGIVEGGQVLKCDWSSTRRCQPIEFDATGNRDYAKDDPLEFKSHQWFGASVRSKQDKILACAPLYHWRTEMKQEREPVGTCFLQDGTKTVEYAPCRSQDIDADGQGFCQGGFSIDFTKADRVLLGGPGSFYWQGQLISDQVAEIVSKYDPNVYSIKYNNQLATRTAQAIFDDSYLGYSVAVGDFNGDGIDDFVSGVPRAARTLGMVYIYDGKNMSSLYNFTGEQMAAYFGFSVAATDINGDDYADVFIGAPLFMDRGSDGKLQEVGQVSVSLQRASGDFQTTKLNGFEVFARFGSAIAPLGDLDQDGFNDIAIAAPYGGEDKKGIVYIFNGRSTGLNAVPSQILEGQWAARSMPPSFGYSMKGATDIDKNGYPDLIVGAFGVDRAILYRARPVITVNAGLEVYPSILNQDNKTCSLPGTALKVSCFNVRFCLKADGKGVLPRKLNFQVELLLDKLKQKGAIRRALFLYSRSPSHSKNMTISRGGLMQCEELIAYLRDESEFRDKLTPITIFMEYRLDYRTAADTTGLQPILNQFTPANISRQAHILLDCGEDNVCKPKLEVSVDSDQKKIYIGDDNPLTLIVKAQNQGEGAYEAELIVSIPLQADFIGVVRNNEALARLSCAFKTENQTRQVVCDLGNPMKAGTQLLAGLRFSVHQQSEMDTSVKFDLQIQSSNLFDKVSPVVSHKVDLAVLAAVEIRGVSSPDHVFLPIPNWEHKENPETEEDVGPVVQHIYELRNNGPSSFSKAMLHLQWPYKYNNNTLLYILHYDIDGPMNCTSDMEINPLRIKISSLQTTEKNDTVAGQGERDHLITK
T2 sequence (P06756 891-1048 partner limits assumed): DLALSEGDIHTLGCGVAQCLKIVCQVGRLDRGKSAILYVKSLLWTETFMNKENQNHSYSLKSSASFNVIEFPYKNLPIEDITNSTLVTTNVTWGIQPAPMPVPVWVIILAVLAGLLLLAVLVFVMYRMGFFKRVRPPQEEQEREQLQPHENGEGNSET
T2 sequence (P05556 21-798): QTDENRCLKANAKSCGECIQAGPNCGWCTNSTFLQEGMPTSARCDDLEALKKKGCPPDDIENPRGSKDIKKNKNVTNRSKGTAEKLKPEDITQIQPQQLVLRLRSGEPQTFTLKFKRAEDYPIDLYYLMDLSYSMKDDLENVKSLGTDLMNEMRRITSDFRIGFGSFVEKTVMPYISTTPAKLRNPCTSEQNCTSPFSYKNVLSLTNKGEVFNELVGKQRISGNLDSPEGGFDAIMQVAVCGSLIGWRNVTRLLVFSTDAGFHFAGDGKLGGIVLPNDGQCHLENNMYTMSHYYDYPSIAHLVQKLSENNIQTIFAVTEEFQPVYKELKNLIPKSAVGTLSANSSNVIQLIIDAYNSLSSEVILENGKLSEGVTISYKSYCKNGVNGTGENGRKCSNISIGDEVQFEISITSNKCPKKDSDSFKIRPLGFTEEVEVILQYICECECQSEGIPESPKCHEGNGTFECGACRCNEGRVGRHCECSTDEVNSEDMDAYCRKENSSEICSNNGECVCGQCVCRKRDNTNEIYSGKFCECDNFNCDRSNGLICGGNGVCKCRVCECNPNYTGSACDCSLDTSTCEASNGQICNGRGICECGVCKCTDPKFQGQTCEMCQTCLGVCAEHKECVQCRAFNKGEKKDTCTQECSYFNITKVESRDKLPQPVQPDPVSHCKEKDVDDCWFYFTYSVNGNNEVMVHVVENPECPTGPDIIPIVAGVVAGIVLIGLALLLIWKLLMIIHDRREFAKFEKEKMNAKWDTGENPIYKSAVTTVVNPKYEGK
T1 sequence (P06756 31-889 limits assumed): as the sequence (P06756 31-889 limits assumed) above
T1 sequence (P06756 891-1048 partner limits assumed): as the sequence (P06756 891-1048 partner limits assumed) above
T1 sequence (P26012 43-769): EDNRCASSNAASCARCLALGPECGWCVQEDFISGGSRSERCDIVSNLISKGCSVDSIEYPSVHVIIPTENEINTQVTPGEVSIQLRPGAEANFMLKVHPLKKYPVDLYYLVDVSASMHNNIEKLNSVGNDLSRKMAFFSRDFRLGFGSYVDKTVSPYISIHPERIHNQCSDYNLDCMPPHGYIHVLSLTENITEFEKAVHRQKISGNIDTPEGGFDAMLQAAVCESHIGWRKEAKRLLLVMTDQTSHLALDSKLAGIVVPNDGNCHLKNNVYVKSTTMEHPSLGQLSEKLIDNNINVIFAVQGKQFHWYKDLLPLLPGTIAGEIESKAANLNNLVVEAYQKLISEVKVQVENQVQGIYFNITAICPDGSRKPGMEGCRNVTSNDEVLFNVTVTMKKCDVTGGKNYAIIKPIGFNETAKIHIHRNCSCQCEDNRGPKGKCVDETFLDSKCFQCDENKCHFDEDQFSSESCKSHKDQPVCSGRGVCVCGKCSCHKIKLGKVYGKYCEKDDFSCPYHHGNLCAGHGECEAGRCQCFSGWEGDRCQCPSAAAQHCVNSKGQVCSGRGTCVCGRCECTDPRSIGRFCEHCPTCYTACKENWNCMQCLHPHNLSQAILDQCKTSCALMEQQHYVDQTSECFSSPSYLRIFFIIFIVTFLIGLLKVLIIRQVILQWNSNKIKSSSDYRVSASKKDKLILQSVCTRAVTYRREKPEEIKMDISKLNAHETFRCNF
T5 sequence (P06756 31-889 limits assumed): as the sequence (P06756 31-889 limits assumed) above
T5 sequence (P06756 891-1048 partner limits assumed): as the sequence (P06756 891-1048 partner limits assumed) above
T5 sequence (P18564 22-788): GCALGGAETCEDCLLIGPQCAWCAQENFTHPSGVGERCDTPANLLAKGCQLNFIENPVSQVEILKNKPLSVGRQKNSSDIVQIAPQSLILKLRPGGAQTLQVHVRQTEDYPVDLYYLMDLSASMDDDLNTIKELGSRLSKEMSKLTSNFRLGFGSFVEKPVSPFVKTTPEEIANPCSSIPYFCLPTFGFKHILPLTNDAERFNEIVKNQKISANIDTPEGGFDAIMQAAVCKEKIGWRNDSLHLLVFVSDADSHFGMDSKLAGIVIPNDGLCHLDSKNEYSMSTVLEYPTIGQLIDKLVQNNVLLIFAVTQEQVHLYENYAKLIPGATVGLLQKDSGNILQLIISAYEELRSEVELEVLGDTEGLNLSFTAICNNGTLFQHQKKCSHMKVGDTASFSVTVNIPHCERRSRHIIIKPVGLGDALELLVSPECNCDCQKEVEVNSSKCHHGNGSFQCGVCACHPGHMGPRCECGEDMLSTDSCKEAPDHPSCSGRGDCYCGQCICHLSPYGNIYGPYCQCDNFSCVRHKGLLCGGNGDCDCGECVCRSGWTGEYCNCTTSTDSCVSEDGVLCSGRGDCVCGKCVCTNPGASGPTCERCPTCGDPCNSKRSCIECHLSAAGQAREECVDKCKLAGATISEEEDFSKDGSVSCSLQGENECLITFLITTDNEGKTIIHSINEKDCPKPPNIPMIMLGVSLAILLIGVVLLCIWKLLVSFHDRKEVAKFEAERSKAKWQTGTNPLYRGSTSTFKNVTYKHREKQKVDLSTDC
T4 sequence (P06756 31-889 limits assumed): as the sequence (P06756 31-889 limits assumed) above
T4 sequence (P06756 891-1048 partner limits assumed): as the sequence (P06756 891-1048 partner limits assumed) above
T4 sequence (P05106 27-788): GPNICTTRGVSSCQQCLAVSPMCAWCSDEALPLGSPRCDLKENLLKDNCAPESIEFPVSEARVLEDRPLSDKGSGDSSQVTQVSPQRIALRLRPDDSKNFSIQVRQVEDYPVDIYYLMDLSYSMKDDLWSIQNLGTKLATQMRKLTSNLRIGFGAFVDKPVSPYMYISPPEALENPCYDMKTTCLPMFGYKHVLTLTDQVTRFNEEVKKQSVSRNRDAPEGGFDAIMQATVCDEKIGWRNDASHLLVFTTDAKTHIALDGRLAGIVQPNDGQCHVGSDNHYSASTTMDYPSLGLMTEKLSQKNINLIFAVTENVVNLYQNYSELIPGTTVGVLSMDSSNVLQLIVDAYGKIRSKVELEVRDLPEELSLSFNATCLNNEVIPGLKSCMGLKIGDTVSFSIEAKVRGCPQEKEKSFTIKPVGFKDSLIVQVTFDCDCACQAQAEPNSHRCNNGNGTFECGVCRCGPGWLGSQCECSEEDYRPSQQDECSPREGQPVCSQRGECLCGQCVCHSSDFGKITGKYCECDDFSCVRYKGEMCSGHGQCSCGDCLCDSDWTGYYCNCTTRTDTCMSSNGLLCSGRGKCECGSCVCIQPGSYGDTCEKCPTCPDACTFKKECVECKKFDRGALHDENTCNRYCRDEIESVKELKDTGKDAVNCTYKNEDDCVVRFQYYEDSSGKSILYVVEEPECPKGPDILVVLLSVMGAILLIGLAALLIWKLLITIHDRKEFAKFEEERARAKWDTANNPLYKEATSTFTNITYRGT

SMILES	IC50 (αvβ8) [nM]	IC50 (αvβ1; [1]) [nM]	IC50 (αvβ1; read-out: αvβ1 pIC50 (converted)) [nM]	IC50 (αvβ5) [nM]	IC50 (αvβ3) [µM]	IC50 (αvβ6) [nM]
O=C(O)C[C@H](CN1CC[C@](F)(CCc2ccc3c(n2)NCCC3)C1)c1cccc(N2CCOCC2)c1 [Example 2, (S)-4-(R)-(3-Fluoro-3-(2-(5,6,7,8-tetrahydro-1,8-naphthyridin-2-yl)ethyl)pyrrolidin-1-yl)-3-(3-morpholinophenyl)butanoic acid]	25.1					
O=C(O)C[C@H](CN1CC[C@@](F)(CCc2ccc3c(n2)NCCC3)C1)c1cccc(N2CCOCC2)c1 [Example 3, (S)-4-(S)-(3-Fluoro-3-(2-(5,6,7,8-tetrahydro-1,8-naphthyridin-2-yl)ethyl)pyrrolidin-1-yl)-3-morpholinophenyl)butanoic acid maleate salt]		79.4				
O=C(O)C[C@H](CN1CC[C@@](F)(CCc2ccc3c(n2)NCCC3)C1)c1cccc(N2CCOCC2)c1 [Example 4, (S)-4-(S)-(3-Fluoro-3-(2-(5,6,7,8-tetrahydro-1,8-naphthyridin-2-yl)ethyl)pyrrolidin-1-yl)-3-(3-morpholinophenyl)butanoic acid fumarate salt]		100				
O=C(O)C[C@H](CN1CC[C@@](F)(CCc2ccc3c(n2)NCCC3)C1)c1cc(N2CCOCC2)ccc1F [Example 5, (S)-4-((S)-3-Fluoro-3-(2-(5,6,7,8-tetrahydro-1,8-naphthyridin-2-yl)ethyl)pyrrolidin-1-yl)-3-(2-fluoro-5-morpholinophenyl)butanoic acid]	25.1		158	316	0.794	15.8
O=C(O)CC(CN1CC[C@](F)(CCc2ccc3c(n2)NCCC3)C1)c1cc(N2CCOCC2)ccc1F (stereo partly drawn) [Example 9, 4-((R)-3-Fluoro-3-(2-(5,6,7,8-tetrahydro-1,8-naphthyridin-2-yl)ethyl)pyrrolidin-1-yl)-3-(2-fluoro-5-morpholinophenyl)butanoic acid]	79.4			316	7.94	25.1
